Laboratory results: US6191155A (priority 1997, dated 2001)

Key:
fungi = conditions: cited from earlier work
[1] = log P by HPLC (EEC Directive 79/831 Annex V.A8); assay type: physicochemical; conditions: gradient method, acetonitrile/0.1% of aqueous phosphoric acid
Experimental: *) The log P values were determined in accordance with EEC Directive 79/831
Annex V.A8 by HPLC (gradient method, acetonitrile/0.1% of aqueous

Leptosphaeria nodorum = Leptosphaeria nodorum test (wheat)/protective; assay type: in vivo, Leptosphaeria nodorum (on wheat); conditions: application rate 250 g/ha; protective; evaluation 10 days after inoculation
Experimental: Leptosphaeria nodorum Test (Wheat)/Protective
(§1) Solvent: 10 parts by weight of N-methyl-pyrrolidone
(§2) Emulsifier: 0.6 parts by weight of alkylaryl polyglycol ether
(§3) To produce a suitable preparation of active compound, 1 part by weight of active compound is mixed with the stated amounts of solvent and emulsifier, and the concentrate is diluted with water to the desired concentration.
To test for protective activity, young plants are sprayed with the preparation of active compound at the stated application rate. After the spray coating has dried on, the plants are sprayed with a spore suspension of Leptosphaeria nodorum. The plants remain in an incubation cabin at 20° C. and 100% relative atmospheric humidity for 48 hours.
The plants are placed in a greenhouse at a temperature or approximately 15° C. and a relative atmospheric humidity of 80%.
Evaluation is carried out 10 days after the inoculation. 0% means an efficacy which corresponds to that of the control, while an efficacy of 100% means that no infection is observed.

[2] = system: Erysiphe graminis f.sp. hordei; test: Erysiphe test (barley)/protective; assay type: in vivo, Erysiphe graminis f.sp. hordei (on barley); conditions: active compound concentration 250 (head: % by weight); protective; 7 days after inoculation; 100% = no infection
Experimental: Erysiphe Test (Barley)/Protective
as §1, §2, §3
To test for protective activity, young plants are sprayed with the preparation of active compound at the stated application rate.
After the spray coating has dried on, the plants are dusted with spores of Erysiphe graminis f.sp. hordei.
The plants are placed in a greenhouse at a temperature of approximately 20° C. and a relative atmospheric humidity of approximately 80% to promote the development of mildew pustules.
Evaluation is carried out 7 days after the inoculation. 0% means an efficacy which corresponds to that of the control, while an efficacy of 100% means that no infection is observed.

Plutella xylostella = test: Plutella test (caterpillars of the diamond-back moth on cabbage leaves); assay type: in vivo, Plutella xylostella (on Brassica oleracea); conditions: 168 h, active compound concentration 0.1 % by weight, after 7 days, read-out: Kill in % after 7d
Experimental: Solvent: 7 parts by weight of dimethylformamide
Emulsifier: 1 part by weight of alkylaryl polyglycol ether
as §3
Cabbage leaves (Brassica oleracea) are treated by being dipped into the preparation of active compound of the desired concentration and are populated with caterpillars of the diamond-back moth (Plutella xylostella) while the leaves are still moist.
After 7 days, the kill is determined. An efficacy of 100% means that all caterpillars have been killed, while an efficacy of 0% means that none of the caterpillars have been killed.

Row | SMILES | chromatographic logP [1] | further results
1 | CC(C)OC(=O)c1snc(Cl)c1Cl [isopropyl 3,4-dichloro-isothiazol-5-carboxylate] | – | activity in controlling fungi (fungi): good
2 | CCN(CC)CCOC(=O)c1snc(Cl)c1Cl [Example 2] | 1.37 | –
3 | O=C(OCCn1nnc2ccccc21)c1snc(Cl)c1Cl [Example 11] | 2.81 | –
4 | O=C(OCCOc1cccc(C(F)(F)F)c1)c1snc(Cl)c1Cl [Example 4] | 4.71 | –
5 | O=C(OCCc1ccc(Cl)cc1)c1snc(Cl)c1Cl [Example 13] | – | Efficacy in % (Leptosphaeria nodorum): 81%
6 | O=C(OCCOC(CF)CF)c1snc(Cl)c1Cl [Example 9] | 3.11 | –
7 | CSC(=O)c1snc(Cl)c1Cl [Example 15] | 3.46 | –
8 | COC(=O)c1ccc(OCCOC(=O)c2snc(Cl)c2Cl)cc1 [Example 6] | 3.91 | –
9 | Cc1ccc(C(C)OC(=O)c2snc(Cl)c2Cl)cc1 (centres unmarked) [Example 19] | 5.02 | –
10 | O=C(OCCOc1ccc(Cl)cc1)c1snc(Cl)c1Cl [Example 10] | 4.58 | –
11 | O=C(OCCOCC(F)(F)F)c1snc(Cl)c1Cl [Example 8] | 3.55 | –
12 | CC(C)CSC(=O)c1snc(Cl)c1Cl [Example 17] | 5.16 | –
13 | CCCSC(=O)c1snc(Cl)c1Cl [Example 18] | 4.66 | –
14 | O=C(OCCOCCN1CCCC1)c1snc(Cl)c1Cl [Example 3] | 1.36 | Efficacy in % [2]: 100%; mortality at 0.1 % strength (Plutella xylostella): 100%
15 | CCN(CCOCCOC(=O)c1snc(Cl)c1Cl)c1ccccc1 [Example 7] | 2.6 | –
16 | O=C(OCC(O)CO)c1snc(Cl)c1Cl (centres unmarked) [Example 20] | 1.49 | –
17 | O=C(OCc1cccnc1)c1snc(Cl)c1Cl [Example 12] | – | mortality at 0.1 % strength (Plutella xylostella): 100%
18 | O=C(OCCOCc1ccccc1)c1snc(Cl)c1Cl [Example 5] | 4.12 | –
